Converted amounts (≈) assume the structure as drawn.
What was measured:
[1] = Lipophilicity, log P of the compound; type: physicochemical; settings: octanol/water
[2] = target: T1, Dual specificity protein kinase TTK (Homo sapiens, UniProt P33981)
T1 sequence (P33981 whole entry): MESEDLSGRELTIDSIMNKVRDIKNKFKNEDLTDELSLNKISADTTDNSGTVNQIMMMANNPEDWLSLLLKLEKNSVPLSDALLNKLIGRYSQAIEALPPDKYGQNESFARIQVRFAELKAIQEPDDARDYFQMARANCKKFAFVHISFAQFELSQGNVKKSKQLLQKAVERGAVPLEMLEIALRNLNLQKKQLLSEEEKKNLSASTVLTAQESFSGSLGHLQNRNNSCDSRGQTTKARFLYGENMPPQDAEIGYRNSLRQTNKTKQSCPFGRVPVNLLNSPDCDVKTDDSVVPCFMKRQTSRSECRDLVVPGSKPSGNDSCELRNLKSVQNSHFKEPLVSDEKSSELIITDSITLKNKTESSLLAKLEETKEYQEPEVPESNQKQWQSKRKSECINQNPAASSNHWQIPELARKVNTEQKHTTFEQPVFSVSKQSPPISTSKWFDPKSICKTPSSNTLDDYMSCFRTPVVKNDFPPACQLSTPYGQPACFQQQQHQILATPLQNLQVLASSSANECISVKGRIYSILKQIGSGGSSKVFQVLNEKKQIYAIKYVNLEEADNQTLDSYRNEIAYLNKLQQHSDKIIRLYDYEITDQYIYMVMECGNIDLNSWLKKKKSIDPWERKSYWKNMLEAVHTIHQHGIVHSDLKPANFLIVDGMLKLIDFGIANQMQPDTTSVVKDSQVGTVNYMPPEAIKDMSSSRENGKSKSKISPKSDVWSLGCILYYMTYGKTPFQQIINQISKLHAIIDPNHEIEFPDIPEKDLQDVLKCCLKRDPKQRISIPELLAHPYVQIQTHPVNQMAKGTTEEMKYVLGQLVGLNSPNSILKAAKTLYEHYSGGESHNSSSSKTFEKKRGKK
Description: Inhibition of full length human N-terminal 6xHis-tagged MPS1 expressed in baculovirus expression system using 5FAM-H236 peptide as substrate after 60 to 90 mins by caliper assay

CDK2/Cyclin A2 = CDK2/Cyclin A2 (Homo sapiens, UniProt P24941)
[3] = target: T1, Dual specificity protein kinase TTK; remark: listed apart in the source
Description: Inhibition of MPS1 autophosphorylation at Thr33/Ser37 in human HCT116 cells after 2 hrs by MSD assay

[4] = Intrinsic clearance in CD1 mouse liver microsomes assessed per mg protein at 1 uM preincubated for 10 mins followed NADPH/UDP-glucuronic acid addition and measured after 30 mins by LC-MS/MS analysis; type: ADME, microsome; settings: 0.5 h
[5] = Intrinsic clearance in human liver microsomes assessed per mg protein at 1 uM preincubated for 10 mins followed NADPH/UDP-glucuronic acid addition and measured after 30 mins by LC-MS/MS analysis; type: ADME, microsome; settings: 0.5 h
[6] = Solubility of the compound in PBS buffer at pH 7.4 by HPLC analysis; type: physicochemical

Structure (SMILES) | logP [1] | IC50 [2] | Ki [2] | IC50 (CDK2/Cyclin A2) | Ki (CDK2/Cyclin A2) | IC50 [3] | CLH [4] | CLH [5] | solubility [6]
CCOc1cc(-c2nncn2C)ccc1Nc1ncc2cc(C)nc(N3CCCC3)c2n1 | 3.58 | 83 nM | 0.82 nM | 1100 nM | 550 nM | 370 nM |  |  | 
COc1cc(-c2cnn(C)c2)ccc1Nc1ncc2ccnc(NCC(C)(C)C)c2n1 | 4.27 |  |  |  |  |  |  |  | 
CCOc1cc(-c2nnc(C)n2C)ccc1Nc1ncc2cc(C)nc(NCC(C)(C)C)c2n1 | 4.49 | 12 nM | 0.12 nM | 940 nM | 470 nM | 33 nM | 32.9 µL/min/mg | 20.4 µL/min/mg | 1.8 µM (≈ 0.829 µg/mL)
CCOc1cc(-c2nncn2C)ccc1Nc1ncc2cc(C)nc(N3CC(C)(C#N)C3)c2n1 | 3.25 | 20 nM | 0.2 nM | 2700 nM | 1400 nM | 110 nM | 24.7 µL/min/mg | 5.6 µL/min/mg | 6.8 µM (≈ 3.1 µg/mL)
COc1cc(-c2cn(C)nc2C)ccc1Nc1ncc2ccnc(NCC(C)(C)C)c2n1 | 4.56 | 2500 nM | 24 nM | 2800 nM | 1400 nM | 230 nM |  |  | 
COc1cc(-c2cnn(C)c2C)ccc1Nc1ncc2ccnc(NCC(C)(C)C)c2n1 | 4.42 | 79 nM | 0.78 nM | 3000 nM | 1500 nM | 95 nM |  |  | 
COc1cc(-c2cnc(C)n2C)ccc1Nc1ncc2ccnc(NCC(C)(C)C)c2n1 | 4.27 | 8.5 nM | 0.084 nM | 86 nM | 43 nM | 44 nM | 92.5 µL/min/mg |  | 

Further compounds by falling IC50 [2], results first:

logP [1] | IC50 [2] | Ki [2] | IC50 (CDK2/Cyclin A2) | Ki (CDK2/Cyclin A2) | IC50 [3] | CLH [4] | CLH [5] | solubility [6] | Structure (SMILES)
3.58 | 400 nM | 4 nM | 26000 nM | 13000 nM | 3800 nM |  |  |  | CCOc1cc(-c2nncn2C)ccc1Nc1ncc2cc(C)nc(N3CCC3(C)C)c2n1
4.75 | 38 nM | 0.38 nM | > 10000 nM | > 5000 nM | 250 nM | 36.4 µL/min/mg | 18.6 µL/min/mg |  | CCOc1cc(-c2nnc3n2CCC3)ccc1Nc1ncc2cc(C)nc(NCC(C)(C)C)c2n1
4.4 | 19 nM | 0.19 nM | 250 nM | 130 nM | 240 nM | 28.8 µL/min/mg | 28.8 µL/min/mg | 1.7 µM (≈ 0.78 µg/mL) | COc1cc(-c2nnc3n2CCC3)ccc1Nc1ncc2cc(C)nc(NCC(C)(C)C)c2n1
4.75 | 12 nM | 0.12 nM | 360 nM | 180 nM | 230 nM | 27.7 µL/min/mg | 23 µL/min/mg | 77.6 µM (≈ 40.2 µg/mL) | CCOc1cc(-c2nnc(CCN(C)C)n2C)ccc1Nc1ncc2cc(C)nc(NCC(C)(C)C)c2n1
4.55 | 9.5 nM | 0.094 nM | 1400 nM | 720 nM | 170 nM | 34.5 µL/min/mg | 28.2 µL/min/mg |  | COc1cc(-c2cnc(C)n2C)ccc1Nc1ncc2cc(C)nc(NCC(C)(C)C)c2n1
